Source: US8551981B2, “Furo[3,2-d]pyrimidine compounds” (AbbVie Inc., priority 2010, dated 2013)

The compounds below were run on Fcγ receptor signaling (assay: Reverse Passive Arthus model). Conditions: Rattus norvegicus, single dose 10 mg/kg.
Type: in vivo
Experimental: Acute in vivo measurement of Fcγ receptor signaling inhibition of the compounds is measured using the:
Reverse Passive Arthus Model
On day 0 OVA was made up at a concentration of 17 mg/mL, in PBS by rocking gently until a solution was formed. 2% Evans Blue solution (Sigma Aldrich, cat# E2129) was then added to double the volume for a final concentration of 8.5 mg/mL of OVA and 1% Evans Blue dye. Anti-OVA antibody (Abazyme), stock concentration 10 mg/mL, was thawed and a 4 mg/mL solution was made with PBS. Compounds were made up in 0.5% HPMC with 0.02% Tween 80, and vortexed for about 15 seconds followed by homogenization for a minimum of about 2 min at 28,000 RPM until there was a fine particulate suspension with no clumps of compound. Rats were weighed and dosed with compound at a pre-determined time based on compound Tmax determined in pharmacokinetic studies. Animals were then placed under general anesthesia with a 5% isoflourane and oxygen mixture and shaved. Using a 0.5 cc insulin syringe two sites were injected i.d., 1 site with 100 μL of 4.0 mg/mL of anti-OVA antibody, and 1 site with 100 μL of sterile PBS. Each injection site was circled with a permanent marker to mark the site. Immediately following i.d. injections, animals were injected with 200 μL of the OVA (10 mg/kg)/1% Evans Blue mixture, i.v., using a 0.5 cc insulin syringe. About 4 h post injection animals were euthanized, bled via cardiac puncture and blood was put into plasma separation tubes. Blood samples were stored on ice until centrifugation (within about 2 h of collection). Each injection site was removed with a disposable biopsy punch (Acuderm Acu-Punch Disposable 12 mm), cut into four pieces and placed in a pre-labeled 2 mL eppendorf tube. One mL of DMF (99%) was added to each biopsy tube and they were placed in a heat block at about 50° C. for about 24 h. After incubation, 100 μL of each sample was transferred to a 96 well flat bottom plate and read at 620 nm on a plate reader using the Softmax software. Background was removed by subtracting the OD from the PBS injected site from the OD of the anti-OVA injected site for each individual animal. Plasma samples were spun down in a microcentrifuge (Eppendorf 5415R) for about 5 min at 16.1 rcf. 200 μL of plasma was placed in a 1.7 mL eppendorf tube for drug level measurements and tubes were stored at about −80° C. until evaluation.
In the case of `CC1(C)Oc2ccc(Nc3nc(N4CCC(O)(CN)CC4)c4occc4n3)cc2NC1=O` [Example #AM.1.1], the inhibition in vivo at 10 mg/kg is reported as 12%.
`CC1(C)Oc2ccc(Nc3nc(N4CC[C@@H](CN)[C@H](O)C4)c4occc4n3)cc2NC1=O` [Example #AM.1.2] showed an inhibition in vivo at 10 mg/kg of -16%.
In the case of `CC1(C)C(=O)Nc2cc(Nc3nc(N4CCC(O)(CN)CC4)c4occc4n3)ccc21` [Example #AM.1.3], the inhibition in vivo at 10 mg/kg is reported as 15%.
`CN(C)C(=O)c1n[nH]c2cc(Nc3nc(NC4CC4)c4occc4n3)ccc12` [J.1, 6-(4-(Cyclopropylamino)furo[3,2-d]pyrimidin-2-ylamino)-N,N-dimethyl-1H-indazole-3-carboxamide] was tested, and the inhibition in vivo at 10 mg/kg was -2%.
`c1cc(-c2n[nH]c3cc(Nc4nc(NC5CC5)c5occc5n4)ccc23)ccn1` [J.1.7] gave an inhibition in vivo at 10 mg/kg of 12%.
For `N#Cc1n[nH]c2cc(Nc3nc(NC4CC4)c4occc4n3)ccc12` [J.1.8], the inhibition in vivo at 10 mg/kg was 9%.
Compound `Cc1n[nH]c2cc(Nc3nc(N4CCC5(CC4)CNCCO5)c4occc4n3)ccc12` [Q.1.4] has an inhibition in vivo at 10 mg/kg of 33%.
